Results reported in patent US9113629B2, “4-amino-6-(4-substituted-phenyl)-picolinates and 6-amino-2-(4-substituted-phenyl)-pyrimidine-4-carboxylates and their use as herbicides” (DOW AGROSCIENCES LLC, priority 2013, dated 2015).

Legend:
[1] = Post-emergent Test III, herbicidal activity in wheat and barley; assay type: in vivo, Lolium multiflorum, Lolium rigidum; settings: Lolium multiflorum, post-emergence, 504 h, Table 9, post-emergent, 21 d, read-out: Visual Growth Reduction (%) 21 Days After Application LOLSS; for pest or weed control at 35 g/ha: 35 g ai/ha; for pest or weed control at 70 g/ha: 70 g ai/ha; for pest or weed control at 140 g/ha: 140 g ai/ha
How it was run: (§1)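 GR20, GR50, GR80 and GR90 come from probit analysis of visual injury scores (0 = none, 100 = complete kill) taken 21 d after treatment. Foliar application was by track sprayer delivering 187 L/ha at five rates, from high down to 1/16×, onto greenhouse plants at the 2–3 leaf stage, with solvent-blank controls.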

[2] = test system: APESV: bentgrass (Apera spica-venti); experiment: as above; assay type: in vivo; settings: Table 9, 21 d; for pest or weed control at 35 g/ha / pest or weed control at 70 g/ha / pest or weed control at 140 g/ha: Apera spica-venti, post-emergence, 504 h, post-emergent, read-out: Visual Growth Reduction (%) 21 Days After Application APESV; for pest or weed control at 35 g/ha: 35 g ai/ha; for pest or weed control at 70 g/ha: 70 g ai/ha; for GR50 APESV: dose for 50 percent growth reduction; for GR50 APESV / GR80 APESV: probit analysis; for GR80 APESV: dose for 80 percent growth reduction; for pest or weed control at 140 g/ha: 140 g ai/ha
How it was run: as §1

[3] = test system: HORSS: barley, including spring and winter (Hordeum vulgare); experiment: as above; assay type: in vivo; settings: Table 9, 21 d; for pest or weed control at 35 g/ha / pest or weed control at 70 g/ha / pest or weed control at 140 g/ha: Hordeum vulgare, post-emergence, 504 h, post-emergent, read-out: Visual Growth Reduction (%) 21 Days After Application HORSS; for pest or weed control at 35 g/ha: 35 g ai/ha; for pest or weed control at 70 g/ha: 70 g ai/ha; for GR20 HORSS: dose for 20 percent growth reduction, probit analysis; for pest or weed control at 140 g/ha: 140 g ai/ha
How it was run: as §1

[4] = test system: KCHSC: kochia (Kochia scoparia); experiment: as above; assay type: in vivo; settings: Table 9, 21 d; for pest or weed control at 35 g/ha / pest or weed control at 70 g/ha / pest or weed control at 140 g/ha: Bassia scoparia, post-emergence, 504 h, post-emergent, read-out: Visual Growth Reduction (%) 21 Days After Application KCHSC; for pest or weed control at 35 g/ha: 35 g ai/ha; for pest or weed control at 70 g/ha: 70 g ai/ha; for GR50 KCHSC: dose for 50 percent growth reduction; for GR50 KCHSC / GR80 KCHSC: probit analysis; for GR80 KCHSC: dose for 80 percent growth reduction; for pest or weed control at 140 g/ha: 140 g ai/ha
How it was run: as §1

[5] = test system: LOLSS: ryegrass including, Italian ryegrass (Lolium multiflorum), rigid ryegrass (Lolium rigidum), annual ryegrass (Lolium multiflorum subsp. Gaudini); experiment: as above; assay type: in vivo; settings: Table 9, probit analysis, 21 d; for GR50 LOLSS: dose for 50 percent growth reduction; for GR80 LOLSS: dose for 80 percent growth reduction
How it was run: as §1

[6] = test system: SETVI: green foxtail (Setaria viridis); experiment: as above; assay type: in vivo; settings: Table 9, 21 d; for pest or weed control at 35 g/ha / pest or weed control at 70 g/ha / pest or weed control at 140 g/ha: Setaria viridis, post-emergence, 504 h, post-emergent, read-out: Visual Growth Reduction (%) 21 Days After Application SETVI; for pest or weed control at 35 g/ha: 35 g ai/ha; for pest or weed control at 70 g/ha: 70 g ai/ha; for GR50 SETVI: dose for 50 percent growth reduction; for GR50 SETVI / GR80 SETVI: probit analysis; for GR80 SETVI: dose for 80 percent growth reduction; for pest or weed control at 140 g/ha: 140 g ai/ha
How it was run: as §1

[7] = test system: TRZSS: wheat, including spring and winter (Triticum aestivum); experiment: as above; assay type: in vivo; settings: Table 9, 21 d; for GR20 TRZSS: dose for 20 percent growth reduction, probit analysis; for pest or weed control at 35 g/ha / pest or weed control at 70 g/ha / pest or weed control at 140 g/ha: Triticum aestivum, post-emergence, 504 h, post-emergent, read-out: Visual Growth Reduction (%) 21 Days After Application TRZSS; for pest or weed control at 35 g/ha: 35 g ai/ha; for pest or weed control at 70 g/ha: 70 g ai/ha; for pest or weed control at 140 g/ha: 140 g ai/ha
How it was run: as §1

SMILES | pest or weed control at 35 g/ha [1] [%] | pest or weed control at 70 g/ha [1] [%] | pest or weed control at 35 g/ha [2] [%] | pest or weed control at 70 g/ha [2] [%] | GR50 APESV [2] [g ai/ha] | GR80 APESV [2] [g ai/ha] | pest or weed control at 35 g/ha [3] [%] | pest or weed control at 70 g/ha [3] [%] | GR20 HORSS [3] [g ai/ha] | pest or weed control at 35 g/ha [4] [%] | pest or weed control at 70 g/ha [4] [%] | GR50 KCHSC [4] [g ai/ha] | GR80 KCHSC [4] [g ai/ha] | GR50 LOLSS [5] [g ai/ha] | GR80 LOLSS [5] [g ai/ha] | pest or weed control at 35 g/ha [6] [%] | pest or weed control at 70 g/ha [6] [%] | GR50 SETVI [6] [g ai/ha] | GR80 SETVI [6] [g ai/ha] | GR20 TRZSS [7] [g ai/ha] | further results
COC(=O)c1nc(-c2cc(F)c(I)cc2F)c(F)c(N)c1Cl [Compound 55, methyl 4-amino-3-chloro-6-(2,5-difluoro-4-iodophenyl)-5-fluoropicolinate] | 60 to 74 | 75 to 84 | 75 to 84 | 95 to 100 | 4 | 18 | 85 to 94 | 95 to 100 | 1 | 85 to 94 | 85 to 94 | 4 | 21 | 21 | 50 | 75 to 84 | 85 to 94 | 29 | 46 | 1 | pest or weed control at 35 g/ha [7]: 85 to 94%; pest or weed control at 70 g/ha [7]: 95 to 100%; melting point: 142 to 144 °C
Nc1cc(-c2ccc(Br)cc2F)nc(C(=O)O)c1Cl [Compound 74] | 30 to 44 | 45 to 59 | 85 to 94 | 85 to 94 | 10 | 25 | 85 to 94 | 85 to 94 | 1 | 85 to 94 | 95 to 100 | 3 | 11 | >140 | >140 | 75 to 84 | 85 to 94 | 3 | 49 | 1 | pest or weed control at 35 g/ha [7]: 75 to 84%; pest or weed control at 70 g/ha [7]: 75 to 84%; melting point: 186 to 187.3 °C
COC(=O)c1nc(-c2ccc(I)cc2)c(Cl)c(N)c1Cl [Compound 96] | 45 to 59 | 60 to 74 | 30 to 44 | 30 to 44 | 125 | >140 | 85 to 94 | 95 to 100 | 1 | 0 to 29 | 60 to 74 | 79 | >140 | 48 | >140 | 0 to 29 | 60 to 74 | 72 | 128 | 1 | pest or weed control at 140 g/ha [1]: 60 to 74%; pest or weed control at 140 g/ha [2]: 45 to 59%; pest or weed control at 140 g/ha [3]: 95 to 100%; pest or weed control at 140 g/ha [4]: 60 to 74%; pest or weed control at 140 g/ha [6]: 75 to 84%; pest or weed control at 35 g/ha [7]: 85 to 94%; pest or weed control at 70 g/ha [7]: 85 to 94%; pest or weed control at 140 g/ha [7]: 95 to 100%; melting point: 187.2 to 189.9 °C
C=Cc1c(C(=O)O)nc(-c2ccc(Br)cc2)c(F)c1N [Compound 117] | 45 to 59 | 60 to 74 | 45 to 59 | 60 to 74 | 41 | >140 | 0 to 29 | 0 to 29 | 73 | 60 to 74 | 75 to 84 | 20 | 67 | 41 | >140 | 0 to 29 | 60 to 74 | 59 | 99 | 32 | pest or weed control at 35 g/ha [7]: 0 to 29%; pest or weed control at 70 g/ha [7]: 30 to 44%; melting point: 149 to 151 °C
Nc1c(Cl)c(C(=O)O)nc(-c2ccc(Br)cc2)c1Cl [Compound 125] | 0 to 29 | 0 to 29 | 75 to 84 | 85 to 94 | 10 | 41 | 85 to 94 | 95 to 100 | 1 | 60 to 74 | 85 to 94 | 8 | 34 | >140 | >140 | 85 to 94 | 85 to 94 | 2 | 16 | 1 | pest or weed control at 140 g/ha [1]: 45 to 59%; pest or weed control at 140 g/ha [2]: 95 to 100%; pest or weed control at 140 g/ha [3]: 95 to 100%; pest or weed control at 140 g/ha [4]: 95 to 100%; pest or weed control at 140 g/ha [6]: 85 to 94%; pest or weed control at 35 g/ha [7]: 75 to 84%; pest or weed control at 70 g/ha [7]: 75 to 84%; pest or weed control at 140 g/ha [7]: 85 to 94%; melting point: 164.9 to 166.1 °C
